Test results: US8440718B2, “Modulation of inflammation related to columnar epithelia” (The Brigham and Women's Hospital, Inc., priority 1991, dated 2013)
Several values for one entry are separate records, joined by “and”; a condition that tells them apart may be missing. Equal values may be shown once.

Assays:
[1] = target: lipoxin binding sites on human PMN; settings: reported; cited from earlier work
[2] = test system: human PMN migration across T84 epithelial monolayers; test: PMN transepithelial migration assay, apical-to-basolateral direction, fMLP gradient, myeloperoxidase readout; format: cell-based
Experimental: (§1) Cell culture Approximately 350 epithelial monolayers were used for these studies. T84 intestinal epithelial cells (passages 70-95) were grown and maintained as confluent monolayers on collagen coated permeable support. Monolayers were grown on 0.33 cm^2 ring-supported polycarbonate filters (Costar Corp., Cambridge, Mass.) and utilized 6-14 days after plating as described in Example 2. Transepithelial resistance to passive ion flow was measured as described in Parkos C. A., et al. (1991). J. Clin. Invest. 88: 1605-1612); and Parkos C. A., et al. (1992). J. Cell. Biol. 117: 757-764). Inverted monolayers used to study migration of PMN in the basolateral-to-apical direction were constructed as described in Parkos C. A., et al. (1991). J. Clin. Invest. 88:1605-1612).
(§2) Migration assay: The PMN transepithelial migration assay has been detailed in Nash S., et al. (1987). J. Clin. Invest. 80: 1104-1113; Nash S., et al. (1991). J. Clin. Invest 87: 1474-1477); Parkos C. A., et al. (1991). J. Clin. Invest. 88: 1605-1612); and Parkos C. A., et al. (1992). J. Cell. Biol. 117: 757-764. Briefly, human PMN were isolated from normal human volunteers and suspended in modified HBSS (without Ca^2+ and Mg^2+, with 10 mM Hepes, pH 7.4, Sigma) at a concentration of 5×10^7/ml. Prior to addition of PMN, T84 monolayers were extensively rinsed in HBSS to remove residual serum components. Migration assays were performed by the addition of PMN (40 μl) to HBSS ([…]) in the upper chambers after chemoattractant (1 μM fMLP in HBSS) was added to the opposing (lower) chambers. Unless otherwise indicated, PMN were not washed free of LXA4 prior to addition to monolayers, and therefore, a five-fold dilution of lipoxin was present during the migration assay. For apical-to-basolateral migration experiments, PMN (2×10^6) were added at time 0. Migration in the basolateral-to-apical direction, while qualitatively similar, is substantially more efficient than in the apical-to-basolateral direction. (Parkos C. A., et al. (1991). J. Clin. Invest. 88: 1605-1612). Therefore, 5-fold fewer PMN (4×10^5) were added when migration proceeded in the basolateral-to-apical direction in order that baseline migration signals be approximately equivalent in both directions. (Parkos C. A., et al. (1991). J. Clin. Invest. 88: 1605-1612). Migration was allowed to proceed for 120 minutes, unless otherwise noted. All PMN transepithelial migration experiments were performed in a 37° C. room to ensure that epithelial monolayers, solutions, plasticware, etc., were maintained at uniform 37° C. temperature.
(§3) Migration was quantitated by assaying for the PMN azurophilic granule marker myeloperoxidase (MPO) as described previously (Parkos C. A., et al. (1991). J. Clin. Invest 88: 1605-1612). Following each migration assay, non-adherent PMN were extensively washed from the surface of the monolayer and PMN cell equivalents (PMN CE), estimated from a standard curve, were assessed as the number of PMN's associated with the monolayer, the number which had completely traversed the monolayer (ie. across the monolayer into the reservoir bath), as well as the total number of transmigrating PMN (the sum of monolayer and reservoir-associated PMN).
(§4) Data Presentation: Individual experiments were performed using large numbers of uniform groups of monolayers and PMN from individual blood donors on individual days. PMN isolation was restricted to five different blood donors (repetitive donations) over the course of these studies. Myeloperoxidase assay data were compared by two-factor analysis of variance (ANOVA) or by comparison of means using Student's t-Test PMN migration results are represented as PMN CE derived from a daily standard PMN dilution curve. Monolayer-associated PMN are represented as the number of PMN CE per monolayer and reservoir-associated PMN (ie. PMN which had completely traversed the monolayer into the lower chamber) are represented as the number of PMN CE/ml (total volume of 1 ml). […]

[3] = test system: human PMN migration across inverted T84 epithelial monolayers; test: PMN transepithelial migration assay, basolateral-to-apical direction (inverted monolayers), fMLP gradient, myeloperoxidase readout; format: cell-based
Experimental: as §1, §2, §3, §4

[4] = test system: human PMN migration across T84 epithelial monolayers; test: PMN chemotactic capacity toward LXA4 placed in lower chamber, apical-to-basolateral; format: cell-based; settings: compared to 1 μM fMLP
Experimental: as §2, §3
To investigate whether LXA4 could serve to stimulate PMN migration in this assay system, dilutions of LXA4 in the range of 0.01-10 nM were placed in the lower chamber of migration wells. Untreated PMN's were added to the upper chamber and assessed for chemotactic capacity toward LXA4 in the apical-to-basolateral direction. […]

[5] = 10 nM LXA4, 30 min pre-exposure
[6] = PMN pre-exposed 10 nM LXA4 15 min 37°C, 1 μM fMLP, 120 min

CCCCC[C@H](O)/C=C/C=C\C=C\C=C\[C@@H](O)[C@@H](O)CCCC(=O)O (relative stereo) [LXA4, (5S, 6R, 15S)-trihydroxy-7,9,13-trans-11-cis-eicosatetraenoic acid]
Kd [1]: 0.5 nM
PMN in lower reservoirs ([2]; 0.001 nM LXA4, 15 min pre-exposure 37°C): 13.71±4.14 ×10^4 PMN CE/ml
PMN in lower reservoirs ([2]; 0.01 nM LXA4, 15 min pre-exposure 37°C): 14.11±3.01 ×10^4 PMN CE/ml
PMN in lower reservoirs ([2]; 0.1 nM LXA4, 15 min pre-exposure 37°C): 15.43±4.65 ×10^4 PMN CE/ml
PMN in lower reservoirs ([2]; 1 nM LXA4, 15 min pre-exposure 37°C): 19.96±4.83 ×10^4 PMN CE/ml
total PMN migration after LXA4 washout ([2]; 10 nM LXA4 15 min, PMN then washed twice in HBSS): 14.5±0.3 ×10^4 PMN CE/ml
total PMN migration (total MPO activity) ([2]; 10 nM LXA4 15 min, harvested 45 min after addition of PMN): 1.51±0.12 ×10^4 PMN CE/ml
fold increase in the total number of transmigrating PMN ([2]; 10 nM LXA4 15 min vs vehicle control): ~2 fold
total PMN migration ([2]; 10 nM LXA4, 0 min pre-exposure): 16.61±3.56 ×10^4 total PMN CE/ml
total PMN migration relative to vehicle control ([2]; 10 nM LXA4, 45 and 60 minutes pre-exposure): returned to vehicle control values
increase in total PMN migration compared to vehicle controls ([2]; 10 nM LXA4, 5 min pre-exposure): 50%
reservoir-associated PMN ([2]; 10 nM LXA4, 5 min pre-exposure): 18.02±3.35 ×10^4 PMN CE/ml
increase in total PMN migration compared to vehicle controls ([2]; 10 nM LXA4, 15 min pre-exposure): 80% and 68%
increase in total PMN migration compared to vehicle controls [2, 5]: 51%
reservoir-associated PMN [2, 5]: 19.64±3.54 ×10^4 PMN CE/ml
monolayer-associated PMN [2, 6]: 6.93±1.77 ×10^4 PMN CE/monolayer and 7.55±0.71 ×10^4 PMN CE/monolayer
reservoir-associated PMN (completely traversed the monolayer) [2, 6]: 11.02±2.91 ×10^4 PMN CE/ml and 19.96±3.18 ×10^4 PMN CE/ml and 20.38±4.83 ×10^4 PMN CE/ml
total number of transmigrating PMN ([2]; PMN pre-exposed 10 nM LXA4 15 min, LXA4 present, 1 μM fMLP, 120 min): 18.6±1.0 ×10^4 PMN CE/ml and 17.95±2.15 ×10^4 PMN CE/ml
inhibition of PMN migration, basolateral-to-apical (total MPO activity) ([3]; 10 nM, 15 min pre-incubation 37°C, 1 μM fMLP, 120 min): 28±4% and 25%
transmigrated (reservoir) PMN, basolateral-to-apical ([3]; PMN pre-exposed 1 nM LXA4 15 min): 6.99±1.33 ×10^4 PMN/ml
monolayer-associated PMN, basolateral-to-apical ([3]; PMN pre-exposed 10 nM LXA4 15 min): 2.00±0.31
PMN migration toward LXA4, % of fMLP-induced PMN migration ([4]; 0.01 nM LXA4 in lower chamber): 6±2.1%
PMN migration toward LXA4, % of fMLP-induced PMN migration ([4]; 0.1 nM LXA4 in lower chamber): 9±3.6%
PMN migration toward LXA4, % of fMLP-induced PMN migration ([4]; 1.0 nM LXA4 in lower chamber): 6±2.4%
PMN migration toward LXA4, % of fMLP-induced PMN migration ([4]; 10 nM LXA4 in lower chamber): 12±1.4%
